Measurements from publication PMC10892984, “Novel Antineoplastic Inducers of Mitochondrial Apoptosis in Human Cancer Cells” (Molecules, 2024).
Where “and” joins values, the source holds several entries; their conditions need not be identical. Identical values can stand only once.

What was measured:
MOLT-4 = details: for TGI: MOLT-4, leukemia, mutant p53, 48 h
HOP-62 = details: for TGI: HOP-62, non-small-cell lung cancer, mutant p53, 48 h
NCI-H226 = details: for TGI: NCI-H226, non-small-cell lung cancer, p53 Lit. inconclusive, 48 h
NCI-H23 = details: for TGI: NCI-H23, non-small-cell lung cancer, mutant p53, 48 h
NCI-H460 = details: for TGI: NCI-H460, non-small-cell lung cancer, wild-type p53, 48 h
NCI-H522 = details: for TGI: NCI-H522, non-small-cell lung cancer, mutant p53, 48 h
HCC-2998 = details: for TGI: HCC-2998, colon cancer, mutant p53, 48 h
HCT-116 = details: for TGI: HCT-116, colon cancer, wild-type p53, 48 h
KM-12 = details: for TGI: KM-12, colon cancer, mutant p53, 48 h
SW-620 = details: for TGI: SW-620, colon cancer, mutant p53, 48 h
SF-295 = details: for TGI: SF-295, CNS cancer (brain tumor), mutant p53, 48 h
SNB-75 = details: for TGI: SNB-75, CNS cancer (brain tumor), mutant p53, 48 h
MALME-3M = details: 48 h; for TGI: MALME-3M, melanoma, wild-type p53
M14 = details: for TGI: M14, melanoma, mutant p53, 48 h
MDA-MB-435 = details: for TGI: MDA-MB-435, melanoma, mutant p53, 48 h
SK-MEL-28 = details: for TGI: SK-MEL-28, melanoma, mutant p53, 48 h
UACC-62 = details: for TGI: UACC-62, melanoma, wild-type p53, 48 h
IGROV1 = details: for TGI: IGROV1, ovarian cancer, mutant p53, 48 h
OVCAR-4 = details: for TGI: OVCAR-4, ovarian cancer, mutant p53, 48 h
SN12C = details: for TGI: renal cancer, mutant p53, 48 h
TK-10 = details: for TGI: TK-10, renal cancer, mutant p53, 48 h
UO-31 = details: for TGI: UO-31, renal cancer, wild-type p53, 48 h
MDA-MB-231 = details: for TGI: MDA-MB-231, breast cancer, mutant p53, 48 h
HS 578T = details: 48 h; for TGI: HS 578T, breast cancer, mutant p53
BT-549 = details: for TGI: BT-549, breast cancer, mutant p53, 48 h
T-47D = details: 48 h; for TGI: T-47D, breast cancer, mutant p53
[1] = system: 60 human cancer cell lines; details: for induction of cancer cell death (classification): NCI 60 panel overall; for Mean of Inhibition Data (MID) TGI, 10^MID: mean over all tested cell lines of the NCI 60 panel
Source text: The defined tumor inhibition criterion (GI50, TGI, or LC50) is recalculated in log10 expression, and the colored bars, which indicate then the sensitivity of the individual tumor cell line to the agent, are given in log10 units. […] The most important feature is at the bottom of the page: the MID (Mean of Inhibition Data) indicates the mean concentration for all tested cell lines required for the drug to reach the defined tumor inhibition criterion (GI50, TGI, or LC50). It is given in Log10GI50, Log10TGI, and Log10LC50. From those values, the corresponding MID is calculated. […] The MID can be transformed from logarithmic into linear concentrations by the formula: c = 10^MID.
The human tumor cell lines of the cancer screening panel are grown in RPMI-1640 medium containing 5% fetal bovine serum (FBS) and 2 mM L-glutamine. For a typical screening experiment, cells are inoculated into 96-well microtiter plates in 100 μL at plating densities ranging from 5000 to 40,000 cells/well, depending on the doubling time of individual cell lines. After cell inoculation, the microtiter plates are incubated at 37 °C, 5% CO2, 95% air, and 100% relative humidity for 24 h prior to the addition of experimental drugs. After 24 h, two plates of each cell line are fixed in situ with trichloroacetic acid (TCA) to represent a measurement of the cell population for each cell line at the time of drug addition (Tz). Experimental drugs are solubilized in dimethyl sulfoxide (DMSO) at 400-fold the desired final maximum test concentration and stored frozen prior to use. At the time of drug addition, an aliquot of frozen concentrate is thawed and diluted to twice the desired final maximum test concentration with a complete medium containing 50 μg/mL gentamicin. Additional four, 10-fold or ½ log serial dilutions are made to provide a total of five drug concentrations plus control. Aliquots of 100 μL of these different drug dilutions are added to the appropriate microtiter wells already containing 100 μL of the medium, resulting in the required final drug concentrations.
Following drug addition, the plates are incubated for an additional 48 h at 37 °C, 5% CO2, 95% air, and 100% relative humidity. For adherent cells, the assay is terminated by the addition of cold TCA. Cells are fixed in situ by the gentle addition of 50 μL of cold 50% (m/v) TCA (final concentration, 10% TCA) and incubated for 60 min at 4 °C. The supernatant is discarded, and the plates are washed five times with tap water and air dried. Sulforhodamine B (SRB) solution [100 μL at 0.4% (m/v) in 1% acetic acid] is added to each well, and plates are incubated for 10 min at room temperature. After staining, unbound dye is removed by washing five times with 1% acetic acid, and the plates are air dried. Bound stain is subsequently solubilized with 10 mM trizma® base [2-amino-2-(hydroxymethyl)-1,3-propandiol, tris base, trometamol], and the absorbance is read on an automated plate reader at a wavelength of λ = 515 nm. For suspension cells, the methodology is the same, except that the assay is terminated by fixing settled cells at the bottom of the wells by gently adding 50 μL of 80% TCA (final concentration, 16% TCA). Using the seven absorbance measurements [time zero, (Tz), control growth, (C), and test growth in the presence of the drug at the five concentration levels (Ti)], the percentage growth is calculated at each of the drug concentration levels. Percentage growth inhibition is calculated as:[(Ti − Tz)/(C − Tz)] × 100 for concentrations for which Ti ≥ Tz [(Ti − Tz)/Tz] × 100 for concentrations for which Ti < Tz
Three dose-response parameters are calculated for each experimental agent.

Structure (SMILES): COc1cc2c(c(OC)c1OC)-c1ccc(NNC(N)=S)c(=O)cc1C(NC(C)=O)CC2 [Compound 2, N-[(aS,7S)-10-(2-carbamothioylhydrazinyl)-1,2,3-trimethoxy-9-oxo-5,6,7,9-tetrahydrobenzo[a]heptalen-7-yl]acetamide monohydrate × ⅔ (ethyl acetate)]
- GI50 (MOLT-4; Homo sapiens, MOLT-4, 48 h): 0.548 µM
- CC50 (MOLT-4; Homo sapiens, MOLT-4, 48 h, read-out: LC50): > 100 µM
- TGI (MOLT-4): > 100 µM
- TGI (HOP-62): > 100 µM
- GI50 (HOP-62; Homo sapiens, HOP-62, 48 h): 0.7 µM
- CC50 (HOP-62; Homo sapiens, HOP-62, 48 h, read-out: LC50): > 100 µM
- GI50 (NCI-H226; Homo sapiens, NCI-H226, 48 h): 1.74 µM
- CC50 (NCI-H226; Homo sapiens, NCI-H226, 48 h, read-out: LC50): > 100 µM
- TGI (NCI-H226): > 100 µM
- GI50 (NCI-H23; Homo sapiens, NCI-H23, 48 h): 0.438 µM
- CC50 (NCI-H23; Homo sapiens, NCI-H23, 48 h, read-out: LC50): > 100 µM
- TGI (NCI-H23): > 100 µM
- GI50 (NCI-H460; Homo sapiens, NCI-H460, 48 h): 0.429 µM
- CC50 (NCI-H460; Homo sapiens, NCI-H460, 48 h, read-out: LC50): > 100 µM
- TGI (NCI-H460): > 100 µM
- GI50 (NCI-H522; Homo sapiens, NCI-H522, 48 h): 0.55 µM
- CC50 (NCI-H522; Homo sapiens, NCI-H522, 48 h, read-out: LC50): > 100 µM
- TGI (NCI-H522): > 100 µM
- TGI (HCC-2998): 0.674 µM
- GI50 (HCC-2998; Homo sapiens, HCC 2998, 48 h): 0.272 µM
- CC50 (HCC-2998; Homo sapiens, HCC 2998, 48 h, read-out: LC50): > 100 µM
- TGI (HCT-116): 10.6 µM
- GI50 (HCT-116; Homo sapiens, HCT-116, 48 h): 0.377 µM
- CC50 (HCT-116; Homo sapiens, HCT-116, 48 h, read-out: LC50): > 100 µM
- GI50 (KM-12; Homo sapiens, KM12, 48 h): 0.255 µM
- CC50 (KM-12; Homo sapiens, KM12, 48 h, read-out: LC50): > 100 µM
- TGI (KM-12): 0.801 µM
- GI50 (SW-620; Homo sapiens, SW-620, 48 h): 0.369 µM
- CC50 (SW-620; Homo sapiens, SW-620, 48 h, read-out: LC50): > 100 µM
- TGI (SW-620): > 100 µM
- GI50 (SF-295; Homo sapiens, SF-295, 48 h): 0.549 µM
- CC50 (SF-295; Homo sapiens, SF-295, 48 h, read-out: LC50): > 100 µM
- TGI (SF-295): > 100 µM
- GI50 (SNB-75; Homo sapiens, SNB-75, 48 h): 0.441 µM
- CC50 (SNB-75; Homo sapiens, SNB-75, 48 h, read-out: LC50): > 100 µM
- TGI (SNB-75): > 100 µM
- GI50 (MALME-3M; Homo sapiens, Malme-3M): 0.394 µM
- CC50 (MALME-3M; Homo sapiens, Malme-3M, read-out: LC50): > 100 µM
- TGI (MALME-3M): > 100 µM
- GI50 (M14; Homo sapiens, M14, 48 h): 0.284 µM
- CC50 (M14; Homo sapiens, M14, 48 h, read-out: LC50): > 100 µM
- TGI (M14): 0.735 µM
- GI50 (MDA-MB-435; Homo sapiens, MDA-MB-435, 48 h): 0.233 µM
- CC50 (MDA-MB-435; Homo sapiens, MDA-MB-435, 48 h, read-out: LC50): > 100 µM
- TGI (MDA-MB-435): 0.838 µM
- CC50 (SK-MEL-28; Homo sapiens, SK-MEL-28, 48 h, read-out: LC50): > 100 µM
- TGI (SK-MEL-28): > 100 µM
- GI50 (UACC-62; Homo sapiens, UACC-62, 48 h): 0.625 µM
- CC50 (UACC-62; Homo sapiens, UACC-62, 48 h, read-out: LC50): > 100 µM
- TGI (UACC-62): > 100 µM
- GI50 (IGROV1; Homo sapiens, IGROV-1, 48 h): 1.18 µM
- CC50 (IGROV1; Homo sapiens, IGROV-1, 48 h, read-out: LC50): > 100 µM
- TGI (IGROV1): > 100 µM
- GI50 (OVCAR-4; Homo sapiens, OVCAR-4, 48 h): 0.507 µM
- CC50 (OVCAR-4; Homo sapiens, OVCAR-4, 48 h, read-out: LC50): > 100 µM
- TGI (OVCAR-4): > 100 µM
- GI50 (SN12C; Homo sapiens, 48 h): 0.828 µM
- CC50 (SN12C; Homo sapiens, 48 h, read-out: LC50): > 100 µM
- TGI (SN12C): > 100 µM
- GI50 (TK-10; Homo sapiens, TK-10, 48 h): 6.77 µM
- CC50 (TK-10; Homo sapiens, TK-10, 48 h, read-out: LC50): > 100 µM
- TGI (TK-10): > 100 µM
- GI50 (UO-31; Homo sapiens, UO-31, 48 h): > 100 µM
- CC50 (UO-31; Homo sapiens, UO-31, 48 h, read-out: LC50): > 100 µM
- TGI (UO-31): > 100 µM
- GI50 (MDA-MB-231; Homo sapiens, MDA-MB-231, 48 h): 0.359 µM
- CC50 (MDA-MB-231; Homo sapiens, MDA-MB-231, 48 h, read-out: LC50): > 100 µM
- TGI (MDA-MB-231): 1.88 µM
- TGI (HS 578T): > 100 µM
- GI50 (HS 578T; Homo sapiens, Hs-578T): > 100 µM
- CC50 (HS 578T; Homo sapiens, Hs-578T, read-out: LC50): > 100 µM
- TGI (BT-549): 0.924 µM
- GI50 (BT-549; Homo sapiens, BT-549, 48 h): 0.294 µM
- CC50 (BT-549; Homo sapiens, BT-549, 48 h, read-out: LC50): > 100 µM
- GI50 (T-47D; Homo sapiens, T47D): > 100 µM
- CC50 (T-47D; Homo sapiens, T47D, read-out: LC50): > 100 µM
- TGI (T-47D): > 100 µM
- GI50 ([1]; Homo sapiens, read-out: Mean of Inhibition Data (MID) GI50, 10^MID): 0.933 µM
- CC50 ([1]; Homo sapiens, read-out: Mean of Inhibition Data (MID) LC50, 10^MID): 95.5 µM
- induction of cancer cell death (classification) [1]: acts only cytostatic
- Mean of Inhibition Data (MID) TGI, 10^MID [1]: 32.359 µM

Structure (SMILES): COc1cc2c(c(OC)c1OC)-c1ccc(NNC(=S)N(Cc3cccc(C[N+](Cc4cccc(CNC56CC7CC(CC(C7)C5)C6)c4)(Cc4cccc(CNC56CC7CC(CC(C7)C5)C6)c4)Cc4cccc(CN(C(=S)NNc5ccc6c(cc5=O)C(NC(C)=O)CCc5cc(OC)c(OC)c(OC)c5-6)C56CC7CC(CC(C7)C5)C6)c4)c3)C34CC5CC(CC(C5)C3)C4)c(=O)cc1C(NC(C)=O)CC2 [Compound 3, [(bis{3-[(tricyclo[3.3.1.1^3,7]decan-1-ylamino)methyl]benzyl}ammonio)bis(methanediylbenzene-3,1-diylmethanediyl)]di-2-[(aS,7S)-7-(acetylamino)-1,2,3-trimethoxy-9-oxo-5,6,7,9-tetrahydrobenzo[a]heptalen-10-yl]-N-(tricyclo[3.3.1.1^3,7]decan-1-yl)hydrazinecarbothioamide chloride pentahydrate]
- TGI (MOLT-4): 1.93 µM
- TGI (HOP-62): 7.43 µM
- TGI (NCI-H226): 9.97 µM
- TGI (NCI-H23): 5.33 µM
- TGI (NCI-H460): 3.79 µM
- TGI (NCI-H522): 1.88 µM
- TGI (HCC-2998): 1.47 µM
- TGI (HCT-116): 3.07 µM
- TGI (KM-12): 4.52 µM
- TGI (SW-620): 2.06 µM
- TGI (SF-295): 5.92 µM
- TGI (SNB-75): 6.68 µM
- TGI (MALME-3M): 3.04 µM
- TGI (M14): 2.26 µM
- TGI (MDA-MB-435): 3.50 µM
- TGI (SK-MEL-28): 4.07 µM
- TGI (UACC-62): 6.38 µM
- TGI (IGROV1): 5.95 µM
- TGI (OVCAR-4): 8.94 µM
- TGI (SN12C): 6.90 µM
- TGI (TK-10): 8.35 µM
- TGI (UO-31): 7.20 µM
- TGI (MDA-MB-231): 2.99 µM
- TGI (HS 578T): 6.76 µM
- TGI (BT-549): 5.89 µM
- TGI (T-47D): 9.40 µM
- induction of cancer cell death (classification) [1]: tumoricidal
- Mean of Inhibition Data (MID) TGI, 10^MID [1]: 4.571 µM and 4.57 µM
